Results from patent US20220185822A1, “SELECTIVE LIGANDS OF HUMAN CONSTITUTIVE ANDROSTANE RECEPTOR” (USTAV ORGANICKE CHEMIE A BIOCHEMIE AV CR, V.V.I., priority 2019, published 2022).

Key:
[1] = Metabolic stability in human liver S9 fraction; assay type: in vitro ADME; conditions: read-out: T1/2 in human liver S9 fraction
Procedure: Glucose-6-phosphate dehydrogenase from baker's yeast, type XV was purchased from Sigma-Aldrich, now Merck (Cat. No. G6378). Control incubations were performed replacing the cofactors system with PBS. […] Five time points over 40 minutes had been analyzed. Supernatants were analyzed using the HPLC system coupled with HPLC-MS/MS analysis as described above.

[2] = system: CAR+A-EGFP fusion protein; assay: CAR+A-EGFP translocation into nucleus in COS-1 cells; assay type: cell-based; conditions: 10 μM/L, 48 h
PPARδ = molecular target: T1, PPARδ (Homo sapiens, UniProt Q03181); assay: Luciferase reporter assay with GAL4 construct with LBD, PPARδ; assay type: cell-based; conditions: 10 μM/L
T1 construct: luciferase reporter assays with a GAL4 constructs with LBD of tested nuclear receptors; expressed in transfected cells
T1 sequence (Q03181 211-439 limits assumed): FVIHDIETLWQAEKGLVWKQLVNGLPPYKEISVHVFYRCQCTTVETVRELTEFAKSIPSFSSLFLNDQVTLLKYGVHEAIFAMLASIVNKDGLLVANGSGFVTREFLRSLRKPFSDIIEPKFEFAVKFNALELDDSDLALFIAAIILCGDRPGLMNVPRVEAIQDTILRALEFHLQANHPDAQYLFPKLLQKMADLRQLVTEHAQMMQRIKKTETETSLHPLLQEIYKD

## NC(=O)c1cc(Cn2cc(-c3c(-c4ccc(Cl)cc4)nc4cc(F)ccn34)nn2)ccc1Cl [Example 93, 2-Chloro-5-((4-(2-(4-chlorophenyl)-7-fluoroimidazo[1,2-a]pyridin-3-yl)-1H-1,2,3-triazol-1-yl)methyl)benzamide]
[1]
  half-life at 2 μM: > 2.83 h
[2]
  CAR+A-EGFP fusion protein translocation into nucleus: significantly stimulates
PPARδ
  activation of PPARδ: do not activate
